Data as given in patent US20190275012A9, “SUBSTITUTED THIAZOLO-PYRIDINE COMPOUNDS AS MALT1 INHIBITORS” (Lupin Limited, priority 2016, published 2019).
pIC50: −log10 of the molar value.

Legend:
[1] = system: NF-kB transcriptional activity in HEK-293-NF-kB-Luc cell line overexpressing MALT1; experiment: NF-kB reporter assay (luciferase, MALT1 stably overexpressed); format: cell-based; details: Homo sapiens, 24 h, HEK-293-NF-kB-Luc cells stably overexpressing MALT1, 24 h treatment, Bright Glo luminescence; read-out: NF-kB inhibition IC50
Summary of the method: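 HEK-293-NF-κB-Luc cells stably overexpressing MALT1 were seeded overnight, then exposed to test compounds for 24 h. Bright Glo added 10 min at ambient temperature and luminescence read; % inhibition calculated against 0.1% DMSO controls.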

[2] = system: OCI-Ly-10 cells; experiment: Anticancer assay (14 days), cell viability by CCK-8; format: cell-based; details: Homo sapiens, OCI-Ly10, 336 h, 14 days treatment, fresh treatment every 5th day, CCK-8 viability, read-out: Ly-10 (14d) inhibition IC50
Description: OCI-Ly-10 cells (UHN, Canada) seeded in culture media (IMDM+20% FBS) in 96-well plates were treated with various concentrations of the test compounds. Cells were treated for a period of 14 days (13-15 days depending on the confluency of cells) with fresh treatments every 5th day. After the first treatment, for all subsequent treatments, the cells were centrifuged, the spent media was removed and fresh media containing the test compound was added. Cell viability was assessed using CCK-8 kit (Dojindo Laboratories, China) as per manufacturer's instructions. Plates were read in colorimeter and absorbance was detected. (Detection at 450 nm; Background correction at 650 nm). % inhibition was calculated relative to the samples containing media with 0.1% DMSO alone as per the following formula

[3] = biological target: T1, full length MALT1 enzyme (Homo sapiens, UniProt Q9UDY8); experiment: MALT1 biochemical assay (fluorescence based, Ac-Leu-Arg-Ser-Arg-AMC cleavage); details: full length MALT1 protein, 2 h pre-incubation at RT, tetrapeptide substrate Ac-Leu-Arg-Ser-Arg-AMC, read-out: Malt 1 inhibition IC50
T1 construct: a fluorescence based assay with full length MALT1 enzyme
T1 sequence (Q9UDY8 1-824): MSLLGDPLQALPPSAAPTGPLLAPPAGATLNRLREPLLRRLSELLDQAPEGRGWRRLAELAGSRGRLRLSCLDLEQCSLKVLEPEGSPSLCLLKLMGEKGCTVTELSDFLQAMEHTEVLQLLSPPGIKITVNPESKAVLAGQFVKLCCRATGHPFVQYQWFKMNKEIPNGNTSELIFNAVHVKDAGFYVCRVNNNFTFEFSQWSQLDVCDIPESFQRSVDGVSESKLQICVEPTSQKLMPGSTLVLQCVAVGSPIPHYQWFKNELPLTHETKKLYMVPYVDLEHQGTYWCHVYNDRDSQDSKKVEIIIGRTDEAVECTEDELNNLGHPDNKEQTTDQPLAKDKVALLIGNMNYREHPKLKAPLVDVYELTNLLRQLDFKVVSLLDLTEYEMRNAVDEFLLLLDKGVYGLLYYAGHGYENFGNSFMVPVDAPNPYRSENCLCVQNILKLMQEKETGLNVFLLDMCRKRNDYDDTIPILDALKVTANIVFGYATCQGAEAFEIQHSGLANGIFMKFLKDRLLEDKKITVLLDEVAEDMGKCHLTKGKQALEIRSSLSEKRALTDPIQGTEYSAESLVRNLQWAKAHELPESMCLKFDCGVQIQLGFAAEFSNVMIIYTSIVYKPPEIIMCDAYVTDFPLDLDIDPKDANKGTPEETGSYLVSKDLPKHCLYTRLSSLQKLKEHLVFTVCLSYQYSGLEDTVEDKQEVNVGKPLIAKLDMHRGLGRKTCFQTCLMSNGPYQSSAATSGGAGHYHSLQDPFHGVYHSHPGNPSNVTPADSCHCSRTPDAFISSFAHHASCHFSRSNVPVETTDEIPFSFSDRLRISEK
Summary of the method: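 Full-length MALT1 (100-300 ng/well) was pre-incubated with compound for 2 h at RT, then 100 μM Ac-LRSR-AMC was added for 4-12 h. Buffer was 50 mM MES, 150 mM NaCl, 0.1% CHAPS, 1 M ammonium citrate, 10 mM DTT, pH 7, with 0.5% DMSO. IC50 was derived from AMC fluorescence (ex 360/em 460 nm).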

pIC50 [2] | pIC50 [3] | Compound | pIC50 [1]
5.82 to 6.30 | 7.30 to 9.00 | CCOC(C)c1c(NC(=O)Nc2cnc(OC)c(Cl)c2)cnc2sc(C)nc12 (racemic) [Compound 162, 1-(5-Chloro-6-methoxypyridin-3-yl)-3-(7-(1-ethoxyethyl)-2-methylthiazolo[5,4-b]pyridin-6-yl)urea] | 7.00 to 9.00
7.00 to 7.59 | 7.30 to 9.00 | COC(c1c(NC(=O)Nc2cnc(-n3nccn3)c(Cl)c2)cnc2sc(C)nc12)C(C)(C)C (single isomer, unassigned) [Compound 56b, 1-(5-chloro-6-(2H-1,2,3-triazol-2-yl)pyridin-3-yl)-3-(7-(1-methoxy-2,2-dimethylpropyl)-2-methylthiazolo[5,4-b]pyridin-6-yl)urea] | 
7.00 to 7.59 | 7.30 to 9.00 | COC(c1c(NC(=O)Nc2cnc(-n3nccn3)c(C(F)(F)F)c2)cnc2sc(C)nc12)C(C)(C)C (single isomer, unassigned) [Compound 57b, 1-(6-(2H-1,2,3-Triazol-2-yl)-5-(trifluoromethyl)pyridin-3-yl)-3-(7-(1-methoxy-2,2-dimethylpropyl)-2-methylthiazolo[5,4-b]pyridin-6-yl)urea] | 7.00 to 9.00
7.00 to 7.59 | 7.00 to 7.29 | CCC(c1c(NC(=O)Nc2cnc(-n3nccn3)c(C(F)(F)F)c2)cnc2sc(C)nc12)N(C)C (single isomer, unassigned) [Compound 75b, 1-(6-(2H-1,2,3-Triazol-2-yl)-5-(trifluoromethyl)pyridin-3-yl)-3-(7-(1-(dimethylamino)propyl)-2-methylthiazolo[5,4-b]pyridin-6-yl)urea] | 7.00 to 9.00
7.00 to 7.59 | 7.00 to 7.29 | COc1ccc(Cl)cc1NC(=O)Nc1cnc2sc(C)nc2c1C(C)OC (single isomer, unassigned) [Compound 128b, 1-(5-Chloro-2-methoxyphenyl)-3-(7-(1-methoxyethyl)-2-methylthiazolo[5,4-b]pyridin-6-yl)urea] | 
7.60 to 10.00 | 7.30 to 9.00 | COc1cc(-n2nccn2)c(Cl)cc1NC(=O)Nc1cnc2sc(C)nc2c1C(C)OC (single isomer, unassigned) [Compound 131b, 1-(5-Chloro-2-methoxy-4-(2H-1,2,3-triazol-2-yl)phenyl)-3-(7-(1-methoxyethyl)-2-methylthiazolo[5,4-b]pyridin-6-yl)urea] | 
7.60 to 10.00 | 7.30 to 9.00 | CCC(OC)c1c(NC(=O)Nc2cnc(-n3nccn3)c(C(F)(F)F)c2)cnc2sc(C)nc12 (single isomer, unassigned) [Compound 146b, 1-(6-(2H-1,2,3-Triazol-2-yl)-5-(trifluoromethyl)pyridin-3-yl)-3-(7-(1-methoxypropyl)-2-methylthiazolo[5,4-b]pyridin-6-yl)urea] | 
7.60 to 10.00 | 7.30 to 9.00 | COC(c1c(NC(=O)Nc2cnc(-n3nccn3)c(C(F)(F)F)c2)cnc2sc(C)nc12)C1CC1 (single isomer, unassigned) [Compound 151b, 1-(6-(2H-1,2,3-Triazol-2-yl)-5-(trifluoromethyl)pyridin-3-yl)-3-(7-(cyclopropyl(methoxy)methyl)-2-methylthiazolo[5,4-b]pyridin-6-yl)urea] | 
7.00 to 7.59 | 7.30 to 9.00 | CCC(C)c1c(NC(=O)Nc2cnc(-n3nccn3)c(Cl)c2)cnc2sc(C)nc12 (single isomer, unassigned) [Compound 157b, 1-(7-(sec-Butyl)-2-methylthiazolo[5,4-b]pyridin-6-yl)-3-(5-chloro-6-(2H-1,2,3-triazol-2-yl)pyridin-3-yl)urea] | 
7.00 to 7.59 | 7.30 to 9.00 | COc1ncc(NC(=O)Nc2cnc3sc(C)nc3c2C(C)OC)cc1Cl (single isomer, unassigned) [Compound 159a, 1-(5-Chloro-6-methoxypyridin-3-yl)-3-(7-(1-methoxyethyl)-2-methylthiazolo[5,4-b]pyridin-6-yl)urea] | 
7.00 to 7.59 | 7.30 to 9.00 | COC(C)c1c(NC(=O)Nc2cnc(-n3cccn3)c(Cl)c2)cnc2sc(C)nc12 (single isomer, unassigned) [Compound 196b, (S) or (R)-1-(5-chloro-6-(1H-pyrazol-1-yl)pyridin-3-yl)-3-(7-(1-methoxyethyl)-2-methylthiazolo[5,4-b]pyridin-6-yl)urea] | 
7.00 to 7.59 | 7.30 to 9.00 | COC(C)c1c(NC(=O)Nc2ccc(-n3cccn3)c(Cl)c2)cnc2sc(C)nc12 (single isomer, unassigned) [Compound 201b, (S) or (R)-1-(3-Chloro-4-(1H-pyrazol-1-yl)phenyl)-3-(7-(1-methoxyethyl)-2-methylthiazolo[5,4-b]pyridin-6-yl)urea] | 
5.82 to 6.30 |  | CCC(c1c(NC(=O)Nc2cnc(-n3nccn3)c(C(F)(F)F)c2)cnc2sc(C)nc12)N(C)C (centres unmarked) [Compound 75a, 1-(6-(2H-1,2,3-Triazol-2-yl)-5-(trifluoromethyl)pyridin-3-yl)-3-(7-(1-(dimethylamino)propyl)-2-methylthiazolo[5,4-b]pyridin-6-yl)urea] | 6.30 to 7.00
6.60 to 7.00 |  | COC(c1c(NC(=O)Nc2cnc(-n3nccn3)c(Cl)c2)cnc2sc(C)nc12)C(C)C (centres unmarked) [Compound 79a, 1-(5-Chloro-6-(2H-1,2,3-triazol-2-yl)pyridin-3-yl)-3-(7-(1-methoxy-2-methylpropyl)-2-methylthiazolo[5,4-b]pyridin-6-yl)urea] | 6.30 to 7.00
7.00 to 7.59 |  | COc1nc(-n2nccn2)c(C(F)(F)F)cc1NC(=O)Nc1cnc2sc(C)nc2c1C(OC)C(C)C (centres unmarked) [Compound 80a, 1-(7-(1-Methoxy-2-methylpropyl)-2-methylthiazolo[5,4-b]pyridin-6-yl)-3-(2-methoxy-6-(2H-1,2,3-triazol-2-yl)-5-(trifluoromethyl)pyridin-3-yl)urea] | 7.00 to 9.00
6.30 to 6.60 |  | COC(c1ccc(F)cc1)c1c(NC(=O)Nc2cnc(-n3nccn3)c(C(F)(F)F)c2)cnc2sc(C)nc12 (centres unmarked) [Compound 85b, 1-(6-(2H-1,2,3-Triazol-2-yl)-5-(trifluoromethyl)pyridin-3-yl)-3-(7-((4-fluorophenyl)(methoxy)methyl)-2-methylthiazolo[5,4-b]pyridin-6-yl)urea] | 7.00 to 9.00
7.60 to 10.00 |  | COC(c1c(NC(=O)Nc2cnc(-n3nccn3)c(C(F)(F)F)c2)cnc2sc(C)nc12)C1CCC1 (centres unmarked) [Compound 224b, 1-(6-(2H-1,2,3-Triazol-2-yl)-5-(trifluoromethyl)pyridin-3-yl)-3-(7-(cyclobutyl(methoxy)methyl)-2-methylthiazolo[5,4-b]pyridin-6-yl)urea] | 7.00 to 9.00
7.00 to 7.59 |  | COC(c1c(NC(=O)Nc2cnc(-n3nccn3)c(Cl)c2)cnc2sc(C)nc12)C1CCC1 (centres unmarked) [Compound 225b, 1-(5-Chloro-6-(2H-1,2,3-triazol-2-yl)pyridin-3-yl)-3-(7-(cyclobutyl(methoxy)methyl)-2-methylthiazolo[5,4-b]pyridin-6-yl)urea] | 7.00 to 9.00
7.00 to 7.59 |  | CCOc1nc(-n2nccn2)c(C(F)(F)F)cc1NC(=O)Nc1cnc2sc(C)nc2c1C(OC)C1CC1 (centres unmarked) [Compound 226a, 1-(7-(Cyclopropyl(methoxy)methyl)-2-methylthiazolo[5,4-b]pyridin-6-yl)-3-(2-ethoxy-6-(2H-1,2,3-triazol-2-yl)-5-(trifluoromethyl)pyridin-3-yl)urea] | 7.00 to 9.00
